Four molecules from patent publication EP4722219A1 (Gan & Lee Pharmaceuticals Co., Ltd., priority 2023, dated 2024) can be followed below.

Assay type in all cases: cell-based
For test [1], the target named is T1, SMARCA2 (Homo sapiens, UniProt P51531). The test can be described thus: SMARCA2 degradation in SW1573 cells (Western blot). As to conditions: 24 hours. The arrangement: endogenous in cells; host or cells: SW1573. The gist of the method: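 Cells were treated for 24 h at 80 nM or 1 nM final compound (0.05% DMSO). SMARCA2 and SMARCA4 in RIPA lysates were detected by SDS-PAGE/Western blot with GAPDH as loading control. Band intensities were quantified by densitometry to give percentage degradation.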
(In general: Immunoblotting shows a protein as a band on a membrane.)

Test [2] addresses T2, SMARCA4 (Homo sapiens, UniProt P51532). The experiment in a line: SMARCA4 degradation in HeLa cells (Western blot). The settings on record: 4 hours, read-out: Degradation rate of SMARCA4 in HeLa cells (%); for Dmax at 0.001 µM: 1 nM; for Dmax at 0.08 µM: 80 nM. The arrangement: endogenous in cells. How it is done: HeLa cells were seeded at 1.2 x 10^5 cells/well in a 6-well plate. 2 mL of EMEM medium supplemented with 10% FBS was added to each well and the culture dish was incubated overnight to allow the cells to adhere. […] The cells were returned to the incubator and incubated for another 4 hours.
(§1) After 4 hours, cells were harvested, the culture medium was aspirated, and the cells were rinsed once with 1 mL/well PBS. The PBS was aspirated, and 40 µL/well of RIPA lysis buffer containing protease inhibitors was added. After lysis and centrifugation, total protein extracts were obtained, and protein concentration in the extracts was determined by BCA assay. Protein electrophoresis was performed by SDS-PAGE, followed by constant voltage electrophoresis at 100 V for 60 minutes and the protein was then transferred to a PVDF membrane. The PVDF membrane was blocked in 5% skim milk powder for 1 hour at room temperature. […] After washing the membrane, secondary antibodies were added and incubated at room temperature for 1 hour (protected from the light). After washing, the membrane was exposed using an Odyssey luminometer. Grayscale analysis of bands was performed using Image Studio software.
(§2) The degradation rate (%) of SMARCA2/4 by the PROTAC compounds of the present invention in HeLa cells and SW1573 cells is shown in Table 10. Table 10 Degradation rate of SMARCA2/4 by PROTAC compounds of the present invention in HeLa cells and SW1573 cells (%)

The target in test [3] is T1, SMARCA2. The experiment in a line: SMARCA2 degradation in HeLa cells (Western blot). As to conditions: 4 hours. The arrangement: endogenous in cells. The gist of the method:
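HeLa cells treated 4 h with compound at final 80 nM or 1 nM (0.05% DMSO). SMARCA2 protein measured by Western blot with GAPDH loading control and band densitometry, giving percent degradation.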

Test [4] concerns the target T2, SMARCA4. The experiment in a line: SMARCA4 degradation in SW1573 cells (Western blot). The arrangement: endogenous in cells; host or cells: SW1573. As to conditions: 24 hours, read-out: Degradation rate of SMARCA4 in SW1573 cells (%); for Dmax at 0.001 µM: 1 nM; for Dmax at 0.08 µM: 80 nM. How it is done:
SW1573 cells were seeded at 2x10^5Cells/well in a 6-well plate. 2 mL of EMEM medium supplemented with 10% FBS was added to each well and was incubated overnight to allow cell attachment. […] The cells were returned to the incubator and incubated for another 24 hours.
as §1, with “After 24” for “After 4”, “the” for “the culture”
as §2

T1 sequence (P51531 whole entry): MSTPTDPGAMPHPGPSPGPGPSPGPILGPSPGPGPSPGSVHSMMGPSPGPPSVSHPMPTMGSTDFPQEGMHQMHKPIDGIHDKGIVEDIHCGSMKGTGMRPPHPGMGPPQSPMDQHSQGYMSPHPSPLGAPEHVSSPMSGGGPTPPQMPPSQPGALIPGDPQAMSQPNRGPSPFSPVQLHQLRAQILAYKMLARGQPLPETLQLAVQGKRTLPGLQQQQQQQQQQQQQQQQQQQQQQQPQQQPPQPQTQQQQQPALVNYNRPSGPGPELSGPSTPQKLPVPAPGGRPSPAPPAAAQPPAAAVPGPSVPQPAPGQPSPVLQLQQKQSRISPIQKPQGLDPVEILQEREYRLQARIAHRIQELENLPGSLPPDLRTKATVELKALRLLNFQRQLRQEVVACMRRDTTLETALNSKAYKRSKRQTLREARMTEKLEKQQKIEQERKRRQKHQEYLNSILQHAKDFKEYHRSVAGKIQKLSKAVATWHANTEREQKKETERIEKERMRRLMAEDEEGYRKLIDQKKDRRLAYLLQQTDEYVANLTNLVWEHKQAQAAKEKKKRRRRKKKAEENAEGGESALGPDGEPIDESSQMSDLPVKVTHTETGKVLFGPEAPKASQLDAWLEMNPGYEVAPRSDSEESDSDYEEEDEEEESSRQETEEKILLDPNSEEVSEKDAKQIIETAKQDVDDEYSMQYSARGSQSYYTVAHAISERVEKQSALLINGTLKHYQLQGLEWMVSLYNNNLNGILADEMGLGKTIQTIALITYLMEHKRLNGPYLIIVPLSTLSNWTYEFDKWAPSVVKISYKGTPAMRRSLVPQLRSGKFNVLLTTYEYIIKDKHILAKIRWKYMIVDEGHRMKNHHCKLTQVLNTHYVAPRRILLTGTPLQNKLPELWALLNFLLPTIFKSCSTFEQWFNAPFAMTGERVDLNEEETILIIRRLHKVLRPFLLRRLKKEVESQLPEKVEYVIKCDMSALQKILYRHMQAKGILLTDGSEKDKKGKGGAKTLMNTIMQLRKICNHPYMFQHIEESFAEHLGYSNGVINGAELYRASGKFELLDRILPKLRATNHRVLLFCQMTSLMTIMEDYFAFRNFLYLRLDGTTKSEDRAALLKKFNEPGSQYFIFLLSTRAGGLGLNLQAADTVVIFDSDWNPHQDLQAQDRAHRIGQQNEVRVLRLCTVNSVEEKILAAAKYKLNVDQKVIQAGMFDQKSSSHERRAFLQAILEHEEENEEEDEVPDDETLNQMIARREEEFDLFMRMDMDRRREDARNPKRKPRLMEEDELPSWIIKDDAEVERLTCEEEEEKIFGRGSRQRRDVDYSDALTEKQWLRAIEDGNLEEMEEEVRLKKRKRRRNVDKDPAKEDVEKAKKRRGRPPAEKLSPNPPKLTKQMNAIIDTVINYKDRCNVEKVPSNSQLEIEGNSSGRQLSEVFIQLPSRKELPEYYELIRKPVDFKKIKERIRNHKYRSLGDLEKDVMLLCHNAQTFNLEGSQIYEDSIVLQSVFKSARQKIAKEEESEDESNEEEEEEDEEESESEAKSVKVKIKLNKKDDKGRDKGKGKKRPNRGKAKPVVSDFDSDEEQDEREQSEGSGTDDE
T2 sequence (P51532 whole entry): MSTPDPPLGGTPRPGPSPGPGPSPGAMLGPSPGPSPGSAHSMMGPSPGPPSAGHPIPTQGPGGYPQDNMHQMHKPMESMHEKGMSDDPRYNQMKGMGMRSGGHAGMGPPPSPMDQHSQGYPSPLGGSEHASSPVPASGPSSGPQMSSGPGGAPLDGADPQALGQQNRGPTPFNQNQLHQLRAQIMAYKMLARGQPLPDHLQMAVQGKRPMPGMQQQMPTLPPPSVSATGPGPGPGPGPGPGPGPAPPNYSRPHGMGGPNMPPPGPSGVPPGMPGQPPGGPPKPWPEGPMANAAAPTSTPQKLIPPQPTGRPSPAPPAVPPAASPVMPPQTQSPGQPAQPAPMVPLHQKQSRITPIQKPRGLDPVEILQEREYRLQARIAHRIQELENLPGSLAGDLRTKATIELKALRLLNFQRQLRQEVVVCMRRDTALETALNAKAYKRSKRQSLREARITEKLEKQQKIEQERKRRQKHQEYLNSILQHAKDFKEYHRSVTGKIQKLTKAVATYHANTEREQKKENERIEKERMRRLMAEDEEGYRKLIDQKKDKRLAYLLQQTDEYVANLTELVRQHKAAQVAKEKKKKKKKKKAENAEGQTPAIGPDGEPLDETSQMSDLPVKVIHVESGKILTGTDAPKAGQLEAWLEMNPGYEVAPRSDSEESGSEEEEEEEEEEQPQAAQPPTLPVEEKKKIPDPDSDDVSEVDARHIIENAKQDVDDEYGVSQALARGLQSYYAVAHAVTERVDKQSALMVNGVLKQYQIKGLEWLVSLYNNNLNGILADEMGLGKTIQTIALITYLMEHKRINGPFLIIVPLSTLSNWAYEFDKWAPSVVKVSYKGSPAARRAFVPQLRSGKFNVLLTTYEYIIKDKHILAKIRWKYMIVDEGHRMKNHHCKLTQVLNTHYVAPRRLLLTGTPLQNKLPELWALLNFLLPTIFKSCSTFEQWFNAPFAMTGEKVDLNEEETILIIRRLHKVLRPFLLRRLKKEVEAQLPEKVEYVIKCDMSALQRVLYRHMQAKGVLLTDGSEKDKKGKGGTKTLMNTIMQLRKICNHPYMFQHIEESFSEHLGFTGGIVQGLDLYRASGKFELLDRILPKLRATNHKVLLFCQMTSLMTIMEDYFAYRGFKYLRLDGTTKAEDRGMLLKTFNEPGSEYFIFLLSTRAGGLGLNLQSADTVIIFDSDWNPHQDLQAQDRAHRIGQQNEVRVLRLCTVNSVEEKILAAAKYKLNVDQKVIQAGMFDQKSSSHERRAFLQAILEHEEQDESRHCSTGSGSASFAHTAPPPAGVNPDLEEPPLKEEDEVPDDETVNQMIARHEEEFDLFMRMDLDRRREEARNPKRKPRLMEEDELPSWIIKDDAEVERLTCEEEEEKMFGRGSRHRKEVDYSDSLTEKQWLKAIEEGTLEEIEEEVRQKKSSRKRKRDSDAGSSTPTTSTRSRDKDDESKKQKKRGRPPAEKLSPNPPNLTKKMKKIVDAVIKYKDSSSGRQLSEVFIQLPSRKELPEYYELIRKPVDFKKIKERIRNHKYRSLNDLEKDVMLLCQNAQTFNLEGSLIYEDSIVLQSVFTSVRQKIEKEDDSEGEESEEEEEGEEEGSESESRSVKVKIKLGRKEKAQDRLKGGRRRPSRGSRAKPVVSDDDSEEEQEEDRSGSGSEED

On to `Nc1nnc(-c2ccccc2O)cc1C#CC1CCC2(CC1)CC(N1CCC3(CCc4ccc(NC5CCC(=O)NC5=O)cc4O3)CC1)C2` (centres unmarked) [SM-P-24, 3-((1'-(7-((3-amino-6-(2-hydroxyphenyl)pyridazin-4-yl)ethynyl)spiro[3.5]nonan-2-yl)spiro[chromane-2,4'-piperidin]-7-yl)amino)piperidine-2,6-dione], for which the “Degradation rate of SMARCA2 in SW1573 cells (%)” value is given as -29% at SMARCA2 [1] (1 nM) and -75% at SMARCA2 [1] (80 nM). Moreover, the Dmax at 0.001 µM on SMARCA4 [2] is -34%; at SMARCA4 [4], 12%. Moreover, the Dmax at 0.08 µM is -1% at SMARCA4 [2] and 11% on SMARCA4 [4]. Further, the “Degradation rate of SMARCA2 in HeLa cells (%)” value on SMARCA2 [3] (1 nM) was -10%; at SMARCA2 [3] (80 nM) it was 29%.

With `Nc1nnc(-c2ccccc2O)cc1C#CC1CCC2(CC1)CC(N1CCC3(CC1)Cc1ccc(NC4CCC(=O)NC4=O)cc1O3)C2` (centres unmarked) [SM-P-25, 3-((1'-(7-((3-amino-6-(2-hydroxyphenyl)pyridazin-4-yl)ethynyl)spiro[3.5]nonan-2-yl)-3H-spiro[benzofuran-2,4'-piperidin]-6-yl)amino)piperidine-2,6-dione], the results for the “Degradation rate of SMARCA2 in SW1573 cells (%)” value at SMARCA2 [1] (1 nM) and at SMARCA2 [1] (80 nM) were 11% and 50%, respectively. The Dmax at 0.001 µM was 6% at SMARCA4 [2] and -21% on SMARCA4 [4]. The results for the Dmax at 0.08 µM on SMARCA4 [2] and at SMARCA4 [4] were 42% and -10%, respectively. Moreover, the “Degradation rate of SMARCA2 in HeLa cells (%)” value is recorded as 10% on SMARCA2 [3] (1 nM) and 53% at SMARCA2 [3] (80 nM).

On to `Cn1c(=O)n(C2CCC(=O)NC2=O)c2ccc3c(c21)OCC31CCN(C(=O)[C@H]2CC[C@H](Cn3cc(-c4cc(-c5ccccc5O)nnc4N)cn3)CC2)CC1` (some centres unmarked) [SM-P-27, 3-(1'-((1r,4r)-4-((4-(3-amino-6-(2-hydroxyphenyl)pyridazin-4-yl)-1H-pyrazol-1-yl)methyl)cyclohexane-1-carbonyl)-1-methyl-2-oxo-1,2-dihvdro-3H,7H-spiro[benzofuro[6,7-d]imidazole-6,4'-piperidin]-3-yl)piperidine-2,6-dione], for which the “Degradation rate of SMARCA2 in SW1573 cells (%)” value at SMARCA2 [1] (1 nM) was 59%; at SMARCA2 [1] (80 nM), 88%. For the same molecule, the Dmax at 0.001 µM on SMARCA4 [2] amounted to 22%; at SMARCA4 [4], 40%. For the same molecule, the Dmax at 0.08 µM at SMARCA4 [2] was 79%; at SMARCA4 [4], 82%. The “Degradation rate of SMARCA2 in HeLa cells (%)” value amounted to 51% at SMARCA2 [3] (1 nM) and 90% at SMARCA2 [3] (80 nM).

For the molecule `Cn1c(=O)n(C2CCC(=O)NC2=O)c2cc3c(cc21)C1(CCN(C(=O)[C@H]2CC[C@H](Cn4cc(-c5cc(-c6ccccc6O)nnc5N)cn4)CC2)CC1)CO3` (some centres unmarked) [SM-P-28, 3-(1'-((1r,4r)-4-((4-(3-amino-6-(2-hydroxyphenyl)pyridazin-4-yl)-1H-pyrazol-1-yl)methyl)cyclohexane-1-carbonyl)-1-methyl-2-oxo-1,2-dihydro-3H,6H-spiro[benzofuro[5,6-d]imidazole-7,4'-piperidin]-3-yl)piperidine-2,6-dione], the “Degradation rate of SMARCA2 in SW1573 cells (%)” value is 14% at SMARCA2 [1] (1 nM) and 77% on SMARCA2 [1] (80 nM). Besides, the Dmax at 0.001 µM came out at 38% on SMARCA4 [2] and 11% on SMARCA4 [4]. The results for the Dmax at 0.08 µM at SMARCA4 [2] and at SMARCA4 [4] were 99% and 95%, respectively. Moreover, the “Degradation rate of SMARCA2 in HeLa cells (%)” value is 17% on SMARCA2 [3] (1 nM) and 98% at SMARCA2 [3] (80 nM).
